# Results published in paper PMC8398714, “Synthesis and Evaluation of Biological Activities of Bis(spiropyrazolone)cyclopropanes: A Potential Application against Leishmaniasis” (Molecules, 2021).
# Like-named read-outs stand apart in the source and are kept apart here.
# Tests used:
# [1] = test system: promastigotes of Leishmania mexicana; assay: Leishmanicidal activity, MTT assay on promastigotes; type: cell-based; conditions: for SI (Selectivity Index) = Citotoxic activity/Leishmanicidal activity: CC50 RAW / IC50 L. mexicana; for IC50: Leishmania mexicana
# Method: The leishmanicidal activity of all compounds was evaluated by measuring promastigotes’ mitochondrial activity using MTT colorimetric assay as described previously. In this study, promastigotes from Leishmania mexicana were used. The species were confirmed by amplifying and sequencing cytochrome b gene. Promastigotes were cultured at 25 °C in Schneider’s Drosophila Medium (Gibco, Invitrogen, Carlsbad, CA, USA) supplemented with 10% fetal bovine serum (Eurobio, Les Ulis, France). The medium was renewed every third day. Parasite density was determined by counting the cells using a Neubauer chamber.
# Into each well of a 96-well plate were dispensed 1 × 10^6 parasites/well. A stock solution of the compounds was prepared in DMSO (Sigma Aldrich, Saint Louis, MO, USA), and serial dilutions were added to the parasite suspension, leading to concentrations ranging from 100 to 0.001 µM, keeping the solvent concentration at 0.5%. The final volume was 200 µL for each well and triplicate conditions were carried out. Amphotericin B (Gibco) treatment (1 µM) untreated parasites and DMSO 0.5% were used as positive and negative controls, respectively. After exposure to the compounds for 48 h in culture medium, 20 µL of a solution of 5 mg/mL MTT dissolved in PBS were added to each well. The plate was incubated at 25 °C for 2 h in darkness. The plate was then centrifuged at 4400 rpm for 10 min and the culture medium was then aspirated; 50 µL of DMSO were added into each well to solubilize the formazan crystals and the plate was shaken for 5 min and then it was measured by recording changes in absorbance at 570 nm using a microplate reader Cytation 5 (BioTek) spectrophotometer. A reference wavelength of 630 nm was used as background subtraction. Optical densities were analyzed because the quantity of formazan is directly proportional to the number of viable parasites. Data were analyzed with the statistical software GraphPad Prism 7.02 (GraphPad Software, Corp.).
# [2] = Cytotoxicity, MTT assay on RAW 264.7 macrophages; type: cell-based; conditions: mouse
# Method: Raw 264.7 (ATCC® TIB-71™) was maintained in Dulbecco’s Modified Eagle Medium (DMEM) (Gibco, Invitrogen, Gibco, Carlsbad, CA, USA) supplemented with 10% fetal bovine serum (FBS) (Eurobio, Les Ulis, France) and 100 IU/mL penicillin + 100 μg/mL streptomycin (Gibco), at 37 °C in a 5% CO2 atmosphere. The medium was renewed once a week. The viability was determined using MTT (Thiazolyl Blue Tetrazolium Bromide) dye assay as described before for leishmanicidal activity assessment, with some variations. Here, 5 × 10^4 cells/well in a final volume of 100 µL were deposited into a 96-well plate, in triplicate. Saponin (2.4 mg/mL) and untreated cells were used as positive control and negative control, respectively. A stock solution was prepared in DMSO and immediately diluted in media to obtain different serial concentrations (100–0.01 µM). After 48 h exposure to the compounds, 10 µL/well of MTT (5 mg/mL MTT in PBS) were added, and the plate was incubated at 37 °C for 2 h in the dark. Cells were pelleted by centrifugation at 4400 rpm for 10 min and the media was removed. Then, 100 µL/well of DMSO were added and the absorbance at 570 nm was recorded; a reference wavelength of 630 nm was used for background subtraction.
# [3] = test system: PC-3; assay: MTS cell viability assay on PC-3 cells; type: cell-based; conditions: Homo sapiens, 48 h; for inhibition at 100 µM: Dox 1 µM, mean ± SEM, NA = no activity, read-out: Percentage (%) of inhibition, PC-3; for IC50: 15-150 µM, mean ± SEM of triplicates
# Method: (§1) Five tumor human cancer cell lines—cerebral astrocytoma (D-384), grade IV prostatic adenocarcinoma (PC-3), mammary adenocarcinoma (MCF-7), human colon carcinoma (RKO) and lung carcinoma (A-549)—along with one immortalized hamster cell line (CHO K-1) were used. The cells PC-3, MCF-7 and RKO were cultured in RPMI-1640, D-384 on DMEM and CHO K-1 on HAM F-12 medium supplemented with 10% fetal bovine serum (FBS, Invitrogen, Karlsruhe, Germany), 1% antibiotic-antimitotic solution (100 units/mL penicillin G, 100 µg/mL streptomycin, and 0.25 µg/mL amphotericin B, Gibco, Grand Island, NY, USA), and 1% L-glutamine (2 mM, Gibco). The cells were incubated at 37 °C in a 5% CO2 atmosphere. The viable cells were counted using the trypan blue exclusion method in a hemocytometer.
# (§2) The MTS (5-[3-(carboxymethoxy)phenyl]-3-(4,5-dimethyl-2-thiazolyl)-2-(4-sulfo- phenyl)-2H-tetrazolium inner salt) cell viability assay was used to assess the inhibitory effects of the extracts on the survival of human cancer cell lines. A total of 3–5 × 10^3 cells/well were seeded into 96-well plates and were allowed to adhere for 24 h. […] Each concentration/assay was performed three times. Dimethyl sulfoxide (DMSO) was used as a negative control at a final concentration of 0.1% v/v, and 1 µM Doxorubicin was used as a positive control. The cells were incubated with the treatments for 48 h, after which 20 µL MTS (5 mg/mL, Aqueous One Solution Reagent, Gibco) was added and further incubated for 4 h at 37 °C. The absorbance was measured at 570 nm. The data obtained with cells treated with DMSO were defined to represent 100% viability.
# [4] = test system: A-549; assay: MTS cell viability assay on A-549 cells; type: cell-based; conditions: Homo sapiens, A549; 100 µM, 48 h; Dox 1 µM; mean ± SEM; NA = no activity; read-out: Percentage (%) of inhibition, A-549
# Method: as §1, §2
# [5] = test system: CHO-K1 cells; type: cell-based, hamster
# Method: Cells were mixed with 150 μL low-melting-point agarose 1% (LMP, Promega, Madison, WI, USA) and added to microscope slides previously prepared with normal-melting-point agarose 1% (NMP, Invitrogen, Carlsbad, CA, USA). A third LMP agarose layer (150 µL) was added. The slides were immersed in a cooled lysing solution (pH 10) with 10% DMSO, 1% Triton X-100 (Sigma Aldrich, Saint Louis, MO, USA), 2.5 M NaCl (Loba Chemie, Mumbai, India), 100 mM EDTA and 10 mM Tris (Invitrogen, Carlsbad, CA, USA) for 12 h at 4 °C. All steps after lysis were performed under darkness or yellow light to prevent additional DNA damage. The slides were immersed for 20 min in an electrophoresis buffer solution (pH 13) with NaOH 300 mM (Fisher Scientific, Waltham, MA, USA) and EDTA 1 mM (Invitrogen, Carlsbad, CA, USA) to allow for DNA unwinding. Electrophoresis was later performed at 25 V and 300 mA for 20 min. Slides were then sprayed with a neutralization buffer (pH 7.5) 0.4 M Tris (Sigma Aldrich, Saint Louis, MO, USA). Ethidium bromide (60 µL) was added to each slide, and a cover glass was placed on the gel. The DNA migration was analyzed using a ZEISS-Axioskop 2 plus microscope with fluorescence (40×) by scoring 100 cells per slide in duplicate. After that, the tail moment parameter was analyzed by a Comet Assay IV software (Perceptive Instruments Ltd., Bury St Edmunds, Suffolk, UK).
# [6] = read-out: IC50 original values, x.1 (Mean)
# [7] = L. mexicana promastigotes, 48 h, MTT, read-out: Leishmanicidal Activity IC50
# [8] = RAW cells, 48 h, MTT, read-out: Cytotoxicity CC50
# [9] = Statistical Analyses S1, unrounded mean of CC50 in RAW cells, unit inferred, read-out: CC50 original values, x.1 (Mean)
SMILES,SI (Selectivity Index) = Citotoxic activity/Leishmanicidal activity [1],"IC50 [1, 6] [µM]","IC50 [1, 7] [µM]","CC50 at 48 h [2, 8] [µM]","CC50 at 48 h [2, 9] [µM]",inhibition at 100 µM [3] [%],IC50 [3] [µM],inhibition at 100 µM [4] [%],Genotoxic effect in comet assay versus DMSO control [5]
"COC(=O)c1ccc(C2[C@@]3(C(=O)N(c4ccccc4)N=C3C)[C@]23C(=O)N(c2ccccc2)N=C3C)cc1 (relative stereo) [4q, (5R*,6R*)-Methyl-4[4,10-dimethyl-2,8-diphenyl-2,3,8,9-tetraazadispiro[4.0.4.1]undeca-3,9-diene-1,7-dione-11-yl]benzoate]",14.3,0.277,0.28 ± 0.04,4 ± 0.8,4.01,50.5 ± 2.38,109 ± 2.77,13 ± 1.99,did not show differences with respect to the control of DMSO
"CC1=NN(c2ccccc2)C(=O)[C@@]12C(c1ccc([N+](=O)[O-])cc1)[C@@]21C(=O)N(c2ccccc2)N=C1C (relative stereo) [4k, (5R*,6R*)-11-(4-Nitrophenyl)-4,10-dimethyl-2,8-diphenyl-2,3,8,9-tetraazadispiro[4.0.4.1]undeca-3,9-diene-1,7-dione]",11.0,0.295,0.3 ± 0.09,3.3 ± 1,3.31,46.7 ± 3.78,83.18 ± 0.45,26.7 ± 3.03,most significant
"CC1=NN(c2ccccc2)C(=O)[C@@]12C(c1cccc([N+](=O)[O-])c1)[C@@]21C(=O)N(c2ccccc2)N=C1C (relative stereo) [4d, (5R*,6R*)-11-(3-Nitrophenyl)-4,10-dimethyl-2,8-diphenyl-2,3,8,9-tetraazadispiro[4.0.4.1]undeca-3,9-diene-1,7-dione]",26.0,0.148,0.15 ± 0.02,3.9 ± 1.1,3.92,46.1 ± 1.91,90.9 ± 2.56,13.6 ± 0.74,most significant
